According to ChEMBL document CHEMBL1156187, “Discovery of a selective small-molecule melanocortin-4 receptor agonist with efficacy in a pilot study of sexual dysfunction in humans” (J Med Chem, 2010):

Experiments:
[1] = molecular target: T1, Melanocyte-stimulating hormone receptor (Homo sapiens, UniProt Q01726); assay: Agonist activity at human recombinant MC1 receptor expressed in HEK293 cells assessed as cAMP accumulation by enzyme fragment complementation assay; type: functional, cell-based
Target sequence in this assay (Q01726 whole entry, the tested form may be a part): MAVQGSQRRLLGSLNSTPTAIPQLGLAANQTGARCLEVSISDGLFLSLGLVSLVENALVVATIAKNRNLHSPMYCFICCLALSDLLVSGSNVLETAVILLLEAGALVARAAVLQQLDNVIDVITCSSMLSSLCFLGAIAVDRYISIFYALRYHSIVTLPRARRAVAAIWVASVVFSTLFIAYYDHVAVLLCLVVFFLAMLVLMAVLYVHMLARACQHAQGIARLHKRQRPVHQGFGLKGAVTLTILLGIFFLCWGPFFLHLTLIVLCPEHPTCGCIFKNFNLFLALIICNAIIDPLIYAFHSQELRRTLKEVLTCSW

Melanocortin receptor 4 [2] = molecular target: T2, Melanocortin receptor 4 (Homo sapiens, UniProt P32245); assay: Agonist activity at human recombinant MC4 receptor expressed in CHO cells by cAMP responsive beta lactamase reporter gene assay; type: functional, cell-based
[3] = molecular target: Voltage-gated inwardly rectifying potassium channel KCNH2 (Homo sapiens, UniProt Q12809); assay: Displacement of [3H]dofetilide from human ERG expressed in CHO cells by patch clamp method
Melanocortin receptor 5 [4] = molecular target: T3, Melanocortin receptor 5 (Homo sapiens, UniProt P33032); assay: Agonist activity at human recombinant MC5 receptor expressed in HEK293 cells assessed as cAMP accumulation by beta lactamase reporter gene assay; type: functional, cell-based
Melanocortin receptor 3 [5] = molecular target: T4, Melanocortin receptor 3 (Homo sapiens, UniProt P41968); assay: Agonist activity at human recombinant MC3 receptor expressed in CHO cells assessed as cAMP accumulation by enzyme fragment complementation assay; type: functional, cell-based
Melanocortin receptor 4 [6] = molecular target: T2, Melanocortin receptor 4; assay: Displacement of [125I]-MT-II from human recombinant MC4 receptor expressed in CHO cells by scintillation counting
Melanocortin receptor 3 [7] = molecular target: T4, Melanocortin receptor 3; assay: Agonist activity at human recombinant MC3 receptor expressed in CHO cells assessed as cAMP accumulation by enzyme fragment complementation assay relative to […]; type: functional, cell-based
[8] = Intrinsic clearance in human liver microsome measured per mg of protein; type: ADME; settings: liver microsomes
[9] = Lipophilicity, log D at pH 7.4; type: physicochemical; settings: buffer
Melanocortin receptor 5 [10] = molecular target: T3, Melanocortin receptor 5; assay: Agonist activity at human recombinant MC5 receptor expressed in HEK293 cells assessed as cAMP accumulation by beta lactamase reporter gene assay relative to alpha melanocyte-stimulating hormone; type: functional, cell-based
[11] = Association constant, pKa of the compound; type: physicochemical
[12] = Volume of distribution at steady state in rat at 1 mg/kg, iv; type: ADME, organism-based; parameters: dose 1 mg/kg, route intravenous; settings: in vivo, read-out: Vdss
[13] = Binding affinity to sodium channel
[14] = Apparent Permeability from apical to basolateral side of MDCK2 cells over expressing MDR1; type: ADME, cell-based, Canis lupus familiaris; settings: dog, MDCK-MDR1; read-out: permeability
Liver microsomes = assay: Intrinsic clearance in rat liver microsome measured per mg of protein; type: ADME
[15] = Volume of distribution at steady state in dog plasma at 0.05 mg/kg, iv; type: ADME, organism-based, Canis lupus familiaris; parameters: dose 0.05 mg/kg, route intravenous; settings: read-out: Vdss
[16] = Clearance in rat at 1 mg/kg, iv; type: ADME, organism-based; parameters: dose 1 mg/kg, route intravenous; settings: in vivo
[17] = Oral bioavailability in rat at 0.1 mg/kg; type: ADME, organism-based; settings: in vivo
[18] = Half life in rat at 1 mg/kg, iv; type: ADME, organism-based; parameters: dose 1 mg/kg, route intravenous; settings: in vivo
[19] = Fraction unbound in dog plasma; type: ADME, cell-free, Canis lupus familiaris
[20] = Clearance in dog plasma at 0.05 mg/kg, iv; type: ADME, organism-based, Canis lupus familiaris; parameters: dose 0.05 mg/kg, route intravenous
[21] = Fraction unbound in rat plasma; type: ADME, cell-free
[22] = Oral bioavailability in dog at 0.1 mg/kg; type: ADME, organism-based, Canis lupus familiaris; settings: in vivo
[23] = Half life in dog at 0.05 mg/kg, iv; type: ADME, organism-based, Canis lupus familiaris; parameters: dose 0.05 mg/kg, route intravenous; settings: in vivo
[24] = molecular target: T1, Melanocyte-stimulating hormone receptor; assay: Agonist activity at human recombinant MC1 receptor expressed in HEK293 cells assessed as cAMP accumulation by enzyme fragment complementation assay relative to alpha melanocyte-stimulating hormone; type: functional, cell-based
Target sequence in this assay (Q01726 whole entry, looked up, the tested form may be a part): as the sequence (Q01726 whole entry, the tested form may be a part) above

[25] = Apparent Permeability from basolateral to apical side of MDCK2 cells over expressing MDR1; type: ADME, cell-based, Canis lupus familiaris; settings: dog, MDCK-MDR1; read-out: permeability
[26] = Intrinsic clearance in dog liver microsome measured per mg of protein; type: ADME, Canis lupus familiaris; settings: microsomes

T3 sequence (P33032 whole entry, the tested form may be a part): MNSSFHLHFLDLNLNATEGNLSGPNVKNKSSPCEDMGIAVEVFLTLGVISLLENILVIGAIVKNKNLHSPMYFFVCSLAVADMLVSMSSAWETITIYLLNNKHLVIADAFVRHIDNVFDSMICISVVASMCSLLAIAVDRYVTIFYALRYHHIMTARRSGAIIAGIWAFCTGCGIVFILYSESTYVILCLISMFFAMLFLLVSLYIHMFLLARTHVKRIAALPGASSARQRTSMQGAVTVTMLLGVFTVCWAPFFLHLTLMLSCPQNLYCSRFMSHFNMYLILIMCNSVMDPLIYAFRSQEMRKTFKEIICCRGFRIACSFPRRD
T4 sequence (P41968 whole entry, the tested form may be a part): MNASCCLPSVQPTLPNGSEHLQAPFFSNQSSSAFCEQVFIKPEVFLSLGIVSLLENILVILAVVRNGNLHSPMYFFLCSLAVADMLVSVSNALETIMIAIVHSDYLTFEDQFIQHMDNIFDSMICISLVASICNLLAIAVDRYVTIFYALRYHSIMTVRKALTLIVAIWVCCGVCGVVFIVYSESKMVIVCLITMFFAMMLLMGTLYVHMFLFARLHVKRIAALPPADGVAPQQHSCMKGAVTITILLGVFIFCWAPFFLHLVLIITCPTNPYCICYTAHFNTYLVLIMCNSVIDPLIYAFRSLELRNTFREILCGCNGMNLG
T2 sequence (P32245 whole entry): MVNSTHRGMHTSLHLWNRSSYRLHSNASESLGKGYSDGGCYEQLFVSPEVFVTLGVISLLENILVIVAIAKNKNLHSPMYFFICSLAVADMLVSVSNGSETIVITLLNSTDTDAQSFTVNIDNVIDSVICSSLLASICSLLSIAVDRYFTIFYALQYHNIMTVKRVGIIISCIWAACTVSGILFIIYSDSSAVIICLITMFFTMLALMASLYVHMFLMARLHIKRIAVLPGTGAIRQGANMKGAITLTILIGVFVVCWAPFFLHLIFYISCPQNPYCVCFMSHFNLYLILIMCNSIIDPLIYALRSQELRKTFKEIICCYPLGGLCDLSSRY
Sequence of Voltage-gated inwardly rectifying potassium channel KCNH2 (Q12809 whole entry): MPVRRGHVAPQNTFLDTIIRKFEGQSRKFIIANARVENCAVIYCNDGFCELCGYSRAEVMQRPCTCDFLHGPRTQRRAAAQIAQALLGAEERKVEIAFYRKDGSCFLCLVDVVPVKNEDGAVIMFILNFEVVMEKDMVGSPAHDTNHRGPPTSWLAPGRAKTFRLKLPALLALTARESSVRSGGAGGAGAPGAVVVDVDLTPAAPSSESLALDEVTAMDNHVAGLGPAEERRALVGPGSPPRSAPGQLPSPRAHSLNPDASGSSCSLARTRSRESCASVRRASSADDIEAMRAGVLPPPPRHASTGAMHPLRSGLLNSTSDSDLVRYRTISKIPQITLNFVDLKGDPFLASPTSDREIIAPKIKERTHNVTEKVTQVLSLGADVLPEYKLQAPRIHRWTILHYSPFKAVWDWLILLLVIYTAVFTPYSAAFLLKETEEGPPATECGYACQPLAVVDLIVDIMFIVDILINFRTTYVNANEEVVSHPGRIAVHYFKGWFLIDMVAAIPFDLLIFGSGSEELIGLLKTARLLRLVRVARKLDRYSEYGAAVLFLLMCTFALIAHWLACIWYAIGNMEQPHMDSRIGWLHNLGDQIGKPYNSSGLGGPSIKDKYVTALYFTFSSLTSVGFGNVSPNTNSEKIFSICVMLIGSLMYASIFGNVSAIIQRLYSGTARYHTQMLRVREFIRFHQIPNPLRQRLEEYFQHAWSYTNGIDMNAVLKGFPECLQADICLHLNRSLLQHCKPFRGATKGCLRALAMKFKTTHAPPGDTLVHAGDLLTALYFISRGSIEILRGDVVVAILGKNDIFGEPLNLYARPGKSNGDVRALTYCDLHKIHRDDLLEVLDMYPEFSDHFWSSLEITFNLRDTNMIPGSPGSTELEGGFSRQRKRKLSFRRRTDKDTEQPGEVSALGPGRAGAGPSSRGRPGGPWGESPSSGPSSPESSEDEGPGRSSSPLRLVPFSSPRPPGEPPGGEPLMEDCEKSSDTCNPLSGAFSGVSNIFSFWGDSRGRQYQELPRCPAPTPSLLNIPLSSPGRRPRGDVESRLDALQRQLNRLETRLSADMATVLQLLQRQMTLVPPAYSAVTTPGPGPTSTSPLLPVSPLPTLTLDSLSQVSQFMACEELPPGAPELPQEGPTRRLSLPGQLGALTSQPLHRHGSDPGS

EC50 [1] [µM]	EC50 (Melanocortin receptor 4 [2]) [µM]	EC50 (Melanocortin receptor 5 [4]) [µM]	EC50 (Melanocortin receptor 3 [5]) [µM]	Ki (Melanocortin receptor 4 [6]) [µM]	Emax (Melanocortin receptor 3 [7]) [%]	microsomal CLint [8] [µL/min/mg]	logD [9]	Emax (Melanocortin receptor 5 [10]) [%]	Emax [24] [%]	Structure (SMILES)	Ki [3] [µM]	further results
> 5.88	0.03	5.19	3.68	0.048	75	16	3.9	107	–	C[C@@H]1CN(C(=O)[C@@H]2CN(C(C)(C)C)C[C@H]2c2ccc(F)cc2F)C[C@H](C)[C@@]1(O)c1ccc(Cl)cc1	> 10	–
1.12	0.018	3.6	3.05	0.036	79	28	3.1	116	99	C[C@@H]1CN(C(=O)[C@@H]2CN(C(C)(C)C)C[C@H]2c2ccc(F)cc2F)C[C@H](C)[C@@]1(O)c1ccc(F)cc1.Cl	–	pKa [11]: 8.74; Vd [12]: 11 L/kg; Ki [13]: 0.52 µM; Papp A→B [14]: 26 ×10⁻⁶ cm/s; clearance (Liver microsomes): 47 µL/min/mg; Vd [15]: 11 L/kg; clearance [16]: 34 mL/min/kg; bioavailability [17]: 74%; half-life [18]: 3.9 h; fraction unbound [19]: 0.09; clearance [20]: 12 mL/min/kg; fraction unbound [21]: 0.04; bioavailability [22]: 28%; half-life [23]: 10.4 h; Papp B→A [25]: 22 ×10⁻⁶ cm/s; clearance [26]: 8 µL/min/mg
0.75	0.069	3.64	11.6	0.114	72	128	3.2	103	100	CC(C)N1C[C@@H](C(=O)N2C[C@@H](C)[C@](O)(c3ccccc3)[C@@H](C)C2)[C@H](c2ccc(F)cc2F)C1	> 7.88	–
